Experimental data from ChEMBL document CHEMBL5725542, “Plasminogen activator inhibitor-1 inhibitors and methods of use thereof” (2017).

Assays:
[1] = Fluorometric PAI-1/uPA IC50 Plate Assay: To determine the efficacy of various synthesized compounds as PAI-1 inhibitors, a fluorometric plate assay was carried out to measure the half maximal inhibitory concentration (IC50) of these compounds on recombinant active human PAI-1 in vitro. An IC50 is a measure of the effectiveness of a compound in inhibiting biological or biochemical function. Stated another way, IC50 represents the concentration of a drug that is required for 50% inhibition in vitro. The IC50 of various compounds was measured using a fluorometric plate assay. PAI-1 inhibitor compounds were dissolved in DMSO to a final concentration of (10-50 mM), depending upon solubility. Compounds were then diluted in physiologic buffer (40 mM HEPES, 100 mM NaCl, 0.05% Tween-20, pH7.4) containing 10% DMSO and a dilution series (from 0 to 1000 uM depending on solubility) was prepared. 80 μL of compound was added per well to a 96-well black, opaque microplate in duplicate. 10 μL of 20 nM Recombinant active human PAI-1 (Molecular Innovations) in physiologic buffer (40 mM HEPES, 100 mM NaCl, 0.05% Tween-20, 10% DMSO, pH 7.4), or […] physiologic buffer with 10% human plasma, was added and the mixture was agitated for 15 minutes at room temperature. 10 μL of 25 nM uPA (Rheotromb®) was added to each reaction well and the plate was agitated for an additional 30 minutes at room temperature. Tripeptide aminomethylcoumarin Gly-Gly-Arg-AMC (Calbiochem) fluorogenic substrate (100 μL of 100 μM) was then added and residual uPA activity was determined based upon cleavage of this substrate. The rate of AMC release by uPA (fluorescence) was measured at an excitation wavelength of 370 nm and an emission wavelength of 440 nm. Controls included PAI-1 and uPA in the absence of compound and uPA alone. Percent PAI-1 inhibition was calculated using the following formula: [(uPA alone-uPA/PAI-1+ compound)/(uPA alone-PAI-1/uPA)]*100%. The IC50 was calculated using Graphit (IC50 0-100%).
[2] = (§1) Fluorometric PAI-1/uPA IC50 Plate Assay (10% plasma buffer): To determine the efficacy of various synthesized compounds as PAI-1 inhibitors, a fluorometric plate assay was carried out to measure the half maximal inhibitory concentration (IC50) of these compounds on recombinant active human PAI-1 in vitro. An IC50 is a measure of the effectiveness of a compound in inhibiting biological or biochemical function. Stated another way, IC50 represents the concentration of a drug that is required for 50% inhibition in vitro. The IC50 of various compounds was measured using a fluorometric plate assay. PAI-1 inhibitor compounds were dissolved in DMSO to a final concentration of (10-50 mM), depending upon solubility. Compounds were then diluted in physiologic buffer (40 mM HEPES, 100 mM NaCl, 0.05% Tween-20, pH7.4) containing 10% DMSO and a dilution series (from 0 to 1000 uM depending on solubility) was prepared. 80 μL of compound was added per well to a 96-well black, opaque microplate in duplicate. 10 μL of 20 nM Recombinant active human PAI-1 (Molecular Innovations) in physiologic buffer (40 mM HEPES, 100 mM NaCl, 0.05% Tween-20, 10% DMSO, pH 7.4), or […] physiologic buffer with 10% human plasma, was added and the mixture was agitated for 15 minutes at room temperature. […]
[3] = as §1, with “(1.5% BSA” for “(10% plasma”

IC50 [1] [mM] | IC50 [2] [µM] | IC50 [3] [µM] | Structure (SMILES)
5.47 | 851 | 892 | [C-]#[N+]c1ccc(CNC(=O)C(=O)NN)cc1
2.28 |  |  | COc1cc(CO)ccc1CNC(=O)C(=O)NN
2.56 |  |  | NNC(=O)C(=O)NCCc1ccc(CO)c(CO)c1
4.31 |  |  | COc1cc(CO)cc(CNC(=O)C(=O)NN)c1
